≈ marks a conversion by molar mass, not a printed value.
Experiments:
Mycobacterium avium [1] = settings: 104 mc'2 3
Mycobacterium avium [2] = settings: isolate MAV2
Description: Inhibition of multidrug resistance efflux pump in Mycobacterium avium isolate MAV2 assessed as potentiation of clarithromycin -induced antibacterial activity by measuring clarithromycin MIC at 1/4 MIC incubated for 3 days by MTT assay (Rvb = >1024 ug/ml)

Mycobacterium avium [3] = settings: isolate MAV4
Mycobacterium avium [4] = settings: isolate MAV1
Description: Inhibition of multidrug resistance efflux pump in Mycobacterium avium isolate MAV1 assessed as potentiation of ofloxacin-induced antibacterial activity by measuring ofloxacin MIC at 1/2 MIC incubated for 3 days by MTT assay (Rvb = 4 ug/ml)

[5] = test system: Mycobacterium avium subsp. avium ATCC 25291
Description: Inhibition of multidrug resistance efflux pump in Mycobacterium avium ATCC 25291 assessed as potentiation of clarithromycin -induced antibacterial activity by measuring clarithromycin MIC at 1/4 MIC incubated for 3 days by MTT assay

Mycobacterium avium [6] = settings: isolate MAV1; remark: listed apart in the source
Mycobacterium avium [7] = experiment: Antimycobacterial activity against Mycobacterium avium isolate MAV2 assessed as reduction in bacterial viability incubated for 3 days by MTT assay; assay type: organism-based; settings: 72 h
Mycobacterium avium [8] = settings: 104
Description: Inhibition of multidrug resistance efflux pump in Mycobacterium avium 104 assessed as potentiation of clarithromycin -induced antibacterial activity by measuring clarithromycin MIC at 1/4 MIC incubated for 3 days by MTT assay

Mycobacterium avium [9] = settings: 104 mc'2 4
Mycobacterium avium [10] = settings: 104 mc'2 3; remark: listed apart in the source
Mycobacterium avium [11] = settings: isolate MAV3
Mycobacterium avium [12] = settings: 104; remark: listed apart in the source
[13] = test system: Mycobacterium avium subsp. avium ATCC 25291; remark: listed apart in the source
Mycobacterium avium [14] = settings: in vivo, 72 h
Description: Antimycobacterial activity against Mycobacterium avium 104 mc'2 3 assessed as reduction in bacterial viability incubated for 3 days by MTT assay

Mycobacterium avium [15] = settings: isolate MAV4; remark: listed apart in the source
Description: Inhibition of multidrug resistance efflux pump in Mycobacterium avium isolate MAV4 assessed as potentiation of clarithromycin -induced antibacterial activity by measuring clarithromycin MIC at 1/4 MIC incubated for 3 days by MTT assay

Mycobacterium avium [16] = settings: 104; remark: listed apart in the source
Mycobacterium avium [17] = settings: isolate MAV2; remark: listed apart in the source
Mycobacterium avium [18] = settings: isolate MAV3; remark: listed apart in the source
Mycobacterium avium [19] = settings: isolate MAV4; remark: listed apart in the source
Mycobacterium avium [20] = settings: 104; remark: listed apart in the source
Mycobacterium avium [21] = settings: isolate MAV3; remark: listed apart in the source
Mycobacterium avium [22] = settings: isolate MAV1; remark: listed apart in the source
Description: Inhibition of multidrug resistance efflux pump in Mycobacterium avium isolate MAV1 assessed as potentiation of ofloxacin-induced antibacterial activity by measuring ofloxacin MIC at 1/4 MIC incubated for 3 days by MTT assay (Rvb = 4 ug/ml)

Mycobacterium avium [23] = experiment: Antimycobacterial activity against Mycobacterium avium isolate MAV1 assessed as reduction in bacterial viability incubated for 3 days by MTT assay; assay type: organism-based; settings: in vitro, 72 h
Mycobacterium avium [24] = settings: isolate MAV3; remark: listed apart in the source
Mycobacterium avium [25] = settings: 104 mc'2 4; remark: listed apart in the source
Mycobacterium avium [26] = settings: 104 mc'2 4; remark: listed apart in the source
Mycobacterium avium [27] = settings: isolate MAV4; remark: listed apart in the source
Mycobacterium avium [28] = settings: isolate MAV3; remark: listed apart in the source
Mycobacterium avium [29] = settings: isolate MAV1; remark: listed apart in the source
Mycobacterium avium [30] = settings: isolate MAV1; remark: listed apart in the source
Description: Inhibition of multidrug resistance efflux pump in Mycobacterium avium isolate MAV1 assessed as potentiation of ciprofloxacin-induced antibacterial activity by measuring ciprofloxacin MIC at 1/2 MIC incubated for 3 days by MTT assay (Rvb = 2 ug/ml)

Mycobacterium avium [31] = settings: in vivo, 72 h; remark: listed apart in the source
Description: Antimycobacterial activity against Mycobacterium avium 104 mc'2 4 assessed as reduction in bacterial viability incubated for 3 days by MTT assay

Mycobacterium avium [32] = settings: isolate MAV4; remark: listed apart in the source
Description: Inhibition of multidrug resistance efflux pump in Mycobacterium avium isolate MAV4 assessed as potentiation of clarithromycin -induced antibacterial activity by measuring clarithromycin MIC at 1/2 MIC incubated for 3 days by MTT assay

Mycobacterium avium [33] = settings: 104; remark: listed apart in the source
Mycobacterium avium [34] = settings: isolate MAV2; remark: listed apart in the source
Mycobacterium avium [35] = settings: isolate MAV2; remark: listed apart in the source
Mycobacterium avium [36] = settings: 104 mc'2 4; remark: listed apart in the source
[37] = Cytotoxicity in human monocyte-derived macrophages assessed as reduction in cell viability incubated for 3 days by alamar blue dye based assay; design: species or system Macrophage cell line
Mycobacterium avium [38] = settings: 104 mc'2 4; remark: listed apart in the source
[39] = test system: Mycobacterium avium subsp. avium ATCC 25291; remark: listed apart in the source
Mycobacterium avium [40] = settings: isolate MAV3; remark: listed apart in the source
Mycobacterium avium [41] = settings: 104; remark: listed apart in the source
Mycobacterium avium [42] = experiment: Antimycobacterial activity against Mycobacterium avium isolate MAV4 assessed as reduction in bacterial viability incubated for 3 days by MTT assay; assay type: organism-based; settings: 72 h
Mycobacterium avium [43] = settings: 104 mc'2 3; remark: listed apart in the source
Mycobacterium avium [44] = settings: 104; remark: listed apart in the source
Mycobacterium avium [45] = settings: 104; remark: listed apart in the source
Mycobacterium avium [46] = experiment: Antimycobacterial activity against Mycobacterium avium isolate MAV3 assessed as reduction in bacterial viability incubated for 3 days by MTT assay; assay type: organism-based; settings: 72 h
Mycobacterium avium [47] = settings: isolate MAV3; remark: listed apart in the source
Mycobacterium avium [48] = settings: isolate MAV2; remark: listed apart in the source
Mycobacterium avium [49] = settings: isolate MAV1; remark: listed apart in the source
[50] = test system: Mycobacterium avium subsp. avium ATCC 25291; remark: listed apart in the source
Mycobacterium avium [51] = settings: isolate MAV4; remark: listed apart in the source
Mycobacterium avium [52] = settings: 104; remark: listed apart in the source
Mycobacterium avium [53] = settings: 104 mc'2 4; remark: listed apart in the source
Mycobacterium avium [54] = settings: 104 mc'2 4; remark: listed apart in the source
Mycobacterium avium [55] = settings: isolate MAV4; remark: listed apart in the source
[56] = test system: Mycobacterium avium subsp. avium ATCC 25291; remark: listed apart in the source
Description: Inhibition of multidrug resistance efflux pump in Mycobacterium avium ATCC 25291 assessed as potentiation of ethidium bromide-induced antibacterial activity by measuring ethidium bromide MIC at 1/4 MIC incubated for 3 days by MTT assay

Mycobacterium avium [57] = settings: 104; remark: listed apart in the source
Description: Inhibition of multidrug resistance efflux pump in Mycobacterium avium 104 assessed as potentiation of clarithromycin -induced antibacterial activity by measuring clarithromycin MIC at 1/2 MIC incubated for 3 days by MTT assay

Mycobacterium avium [58] = settings: 104 mc'2 3; remark: listed apart in the source
Mycobacterium avium [59] = settings: 104 mc'2 4; remark: listed apart in the source
Mycobacterium avium [60] = settings: isolate MAV1; remark: listed apart in the source
Description: Inhibition of multidrug resistance efflux pump in Mycobacterium avium isolate MAV1 assessed as potentiation of ciprofloxacin-induced antibacterial activity by measuring ciprofloxacin MIC at 1/4 MIC incubated for 3 days by MTT assay

Mycobacterium avium [61] = settings: isolate MAV4; remark: listed apart in the source
Mycobacterium avium [62] = settings: isolate MAV1; remark: listed apart in the source
Mycobacterium avium [63] = settings: isolate MAV1; remark: listed apart in the source
Mycobacterium avium [64] = settings: isolate MAV3; remark: listed apart in the source

CSc1ccc2c(c1)N(CCC1CCCCN1C)c1ccccc1S2 (stereo not given) [THIORIDAZINE]
MIC (Mycobacterium avium [1]): < 4 µg/mL
MIC (Mycobacterium avium [2]): > 512 µg/mL
MIC (Mycobacterium avium [3]): 12.5 µg/mL (≈ 33.7 µM)
MIC (Mycobacterium avium [4]): < 0.0625 µg/mL
MIC [5]: 2 µg/mL (≈ 5.4 µM)
MIC (Mycobacterium avium [6]): < 4 µg/mL
MIC (Mycobacterium avium [7]): 30 µg/mL (≈ 81 µM)
MIC (Mycobacterium avium [8]): 4 µg/mL (≈ 10.8 µM)
MIC (Mycobacterium avium [9]): 0.5 µg/mL (≈ 1.35 µM)
MIC (Mycobacterium avium [10]): < 0.125 µg/mL
MIC (Mycobacterium avium [11]): 64 µg/mL (≈ 173 µM)
MIC (Mycobacterium avium [12]): 6.25 µg/mL (≈ 16.9 µM)
MIC [13]: 4 µg/mL (≈ 10.8 µM)
MIC (Mycobacterium avium [14]): 30 µg/mL (≈ 81 µM)
MIC (Mycobacterium avium [15]): 4 µg/mL (≈ 10.8 µM)
MIC (Mycobacterium avium [16]): 4 µg/mL (≈ 10.8 µM)
MIC (Mycobacterium avium [17]): 512 µg/mL (≈ 1380 µM)
MIC (Mycobacterium avium [18]): 2 µg/mL (≈ 5.4 µM)
MIC (Mycobacterium avium [19]): 8 µg/mL (≈ 21.6 µM)
MIC (Mycobacterium avium [20]): 4 µg/mL (≈ 10.8 µM)
MIC (Mycobacterium avium [21]): 12.5 µg/mL (≈ 33.7 µM)
MIC (Mycobacterium avium [22]): 1 µg/mL (≈ 2.7 µM)
MIC (Mycobacterium avium [23]): 30 µg/mL (≈ 81 µM)
MIC (Mycobacterium avium [24]): 2 µg/mL (≈ 5.4 µM)
MIC (Mycobacterium avium [25]): 128 µg/mL (≈ 345 µM)
MIC (Mycobacterium avium [26]): > 512 µg/mL
MIC (Mycobacterium avium [27]): 64 µg/mL (≈ 173 µM)
MIC (Mycobacterium avium [28]): 8 µg/mL (≈ 21.6 µM)
MIC (Mycobacterium avium [29]): < 4 µg/mL
MIC (Mycobacterium avium [30]): < 0.031 µg/mL
MIC (Mycobacterium avium [31]): 30 µg/mL (≈ 81 µM)
MIC (Mycobacterium avium [32]): 1 µg/mL (≈ 2.7 µM)
MIC (Mycobacterium avium [33]): 2 µg/mL (≈ 5.4 µM)
MIC (Mycobacterium avium [34]): 6.25 µg/mL (≈ 16.9 µM)
MIC (Mycobacterium avium [35]): > 512 µg/mL
MIC (Mycobacterium avium [36]): 12.5 µg/mL (≈ 33.7 µM)
CC50 at 72 h ([37]; human monocyte-derived macrophages): 13.8 µM
MTC ([37]; macrophage cell line, 72 h): 2.5 µM
MIC (Mycobacterium avium [38]): 0.78 µg/mL (≈ 2.1 µM)
MIC [39]: 8 µg/mL (≈ 21.6 µM)
MIC (Mycobacterium avium [40]): 128 µg/mL (≈ 345 µM)
MIC (Mycobacterium avium [41]): 32 µg/mL (≈ 86.3 µM)
MIC (Mycobacterium avium [42]): 30 µg/mL (≈ 81 µM)
MIC (Mycobacterium avium [43]): < 0.125 µg/mL
MIC (Mycobacterium avium [44]): 256 µg/mL (≈ 691 µM)
MIC (Mycobacterium avium [45]): 64 µg/mL (≈ 173 µM)
MIC (Mycobacterium avium [46]): 30 µg/mL (≈ 81 µM)
MIC (Mycobacterium avium [47]): 4 µg/mL (≈ 10.8 µM)
MIC (Mycobacterium avium [48]): > 512 µg/mL
MIC (Mycobacterium avium [49]): 0.0625 µg/mL (≈ 0.169 µM)
MIC [50]: 32 µg/mL (≈ 86.3 µM)
MIC (Mycobacterium avium [51]): 4 µg/mL (≈ 10.8 µM)
MIC (Mycobacterium avium [52]): 128 µg/mL (≈ 345 µM)
MIC (Mycobacterium avium [53]): 32 µg/mL (≈ 86.3 µM)
MIC (Mycobacterium avium [54]): 8 µg/mL (≈ 21.6 µM)
MIC (Mycobacterium avium [55]): 256 µg/mL (≈ 691 µM)
MIC [56]: 25 µg/mL (≈ 67.5 µM)
MIC (Mycobacterium avium [57]): 2 µg/mL (≈ 5.4 µM)
MIC (Mycobacterium avium [58]): < 4 µg/mL
MIC (Mycobacterium avium [59]): 4 µg/mL (≈ 10.8 µM)
MIC (Mycobacterium avium [60]): 0.5 µg/mL (≈ 1.35 µM)
MIC (Mycobacterium avium [61]): 64 µg/mL (≈ 173 µM)
MIC (Mycobacterium avium [62]): 16 µg/mL (≈ 43.2 µM)
MIC (Mycobacterium avium [63]): < 4 µg/mL
MIC (Mycobacterium avium [64]): 64 µg/mL (≈ 173 µM)

From ChEMBL document CHEMBL4130462, “Natural isoflavone biochanin A as a template for the design of new and potent 3-phenylquinolone efflux inhibitors against Mycobacterium avium” (Eur J Med Chem, 2017)
